# Test results reported in ChEMBL document CHEMBL1777737, “Solid phase synthesis of tariquidar-related modulators of ABC transporters preferring breast cancer resistance protein (ABCG2)” (Bioorg Med Chem Lett, 2011).
# Biological target: T1, Broad substrate specificity ATP-binding cassette transporter ABCG2 (Homo sapiens, UniProt Q9UNQ0)
# T1 sequence (Q9UNQ0 whole entry): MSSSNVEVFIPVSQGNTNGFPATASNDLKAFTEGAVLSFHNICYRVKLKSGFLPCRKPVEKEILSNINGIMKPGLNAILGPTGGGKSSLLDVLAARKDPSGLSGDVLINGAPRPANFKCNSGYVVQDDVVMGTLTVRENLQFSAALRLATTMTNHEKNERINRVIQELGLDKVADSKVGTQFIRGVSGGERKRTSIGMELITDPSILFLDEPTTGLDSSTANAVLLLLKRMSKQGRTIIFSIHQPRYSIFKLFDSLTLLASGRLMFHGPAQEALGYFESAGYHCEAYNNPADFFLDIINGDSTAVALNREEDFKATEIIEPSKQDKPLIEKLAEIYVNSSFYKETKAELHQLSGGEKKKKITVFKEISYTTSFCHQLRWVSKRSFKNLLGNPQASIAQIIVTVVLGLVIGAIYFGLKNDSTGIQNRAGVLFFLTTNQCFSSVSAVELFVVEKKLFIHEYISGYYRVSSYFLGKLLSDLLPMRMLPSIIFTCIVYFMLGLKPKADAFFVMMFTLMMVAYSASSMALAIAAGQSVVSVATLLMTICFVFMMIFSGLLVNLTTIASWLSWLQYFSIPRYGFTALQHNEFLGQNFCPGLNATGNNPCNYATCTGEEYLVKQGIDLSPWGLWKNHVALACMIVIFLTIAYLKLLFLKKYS
# Assay: Inhibition of ABCG2 expressed in human MCF7/Topo cells by Hoechst microplate assay
# Type: cell-based
# Settings: not given
row,IC50,SMILES
1,0.183 µM,COCCOCCOCCOc1cc2c(cc1OC)CN(CCc1ccc(NC(=O)c3ccc(C(=O)OC)c(NC(=O)c4ccc5ccccc5n4)c3)cc1)CC2
2,> 50 µM,COCCOCCOCCOc1cc2c(cc1OC)CN(CCc1ccc(NC(=O)c3ccc(C(=O)O)c(NC(=O)c4ccc5ncccc5c4)c3)cc1)CC2
3,0.508 µM,COCCOCCOCCOc1cc2c(cc1OC)CCN(CCc1ccc(NC(=O)c3ccc(C(=O)OC)c(NC(=O)c4ccc5ncccc5c4)c3)cc1)C2
4,0.13 µM,COCCOCCOCCOc1cc2c(cc1OC)CCN(CCc1ccc(NC(=O)c3ccc(C(=O)OC)c(NC(=O)c4ccc5ccccc5n4)c3)cc1)C2
5,0.39 µM,COCCOCCOCCOc1cc2c(cc1OC)CN(CCc1ccc(NC(=O)c3ccc(C(=O)OC)c(NC(=O)c4ccc5ncccc5c4)c3)cc1)CC2
6,> 50 µM,COCCOCCOCCOc1cc2c(cc1OC)CCN(CCc1ccc(NC(=O)c3ccc(C(=O)O)c(NC(=O)c4ccc5ncccc5c4)c3)cc1)C2

# More lines, now with the values behind:
row,SMILES,IC50
1,COC(=O)c1ccc(C(=O)Nc2ccc(CCN3CCc4cc(OC)c(OC)cc4C3)cc2)cc1NC(=O)c1ccc2ncccc2c1,0.172 µM
2,COCCOCCOCCOc1cc2c(cc1OC)CCN(CCc1ccc(NC(=O)c3ccc(C(=O)O)c(NC(=O)c4ccc5ccccc5n4)c3)cc1)C2,6.2 µM
3,COC(=O)c1ccc(C(=O)Nc2ccc(CCN3CCc4cc(OC)c(OC)cc4C3)cc2)cc1NC(=O)c1ccc2ccccc2n1,0.059 µM
4,COc1cc2c(cc1OC)CN(CCc1ccc(NC(=O)c3ccc(C(=O)O)c(NC(=O)c4ccc5ccccc5n4)c3)cc1)CC2,> 5 µM
5,COCCOCCOCCOc1cc2c(cc1OC)CN(CCc1ccc(NC(=O)c3ccc(C(=O)O)c(NC(=O)c4ccc5ccccc5n4)c3)cc1)CC2,> 50 µM
6,COc1cc2c(cc1OC)CN(CCc1ccc(NC(=O)c3ccc(C(=O)O)c(NC(=O)c4ccc5ncccc5c4)c3)cc1)CC2,> 100 µM

# Biological target: ATP-dependent translocase ABCB1 (Homo sapiens, UniProt P08183)
# Sequence (P08183 whole entry): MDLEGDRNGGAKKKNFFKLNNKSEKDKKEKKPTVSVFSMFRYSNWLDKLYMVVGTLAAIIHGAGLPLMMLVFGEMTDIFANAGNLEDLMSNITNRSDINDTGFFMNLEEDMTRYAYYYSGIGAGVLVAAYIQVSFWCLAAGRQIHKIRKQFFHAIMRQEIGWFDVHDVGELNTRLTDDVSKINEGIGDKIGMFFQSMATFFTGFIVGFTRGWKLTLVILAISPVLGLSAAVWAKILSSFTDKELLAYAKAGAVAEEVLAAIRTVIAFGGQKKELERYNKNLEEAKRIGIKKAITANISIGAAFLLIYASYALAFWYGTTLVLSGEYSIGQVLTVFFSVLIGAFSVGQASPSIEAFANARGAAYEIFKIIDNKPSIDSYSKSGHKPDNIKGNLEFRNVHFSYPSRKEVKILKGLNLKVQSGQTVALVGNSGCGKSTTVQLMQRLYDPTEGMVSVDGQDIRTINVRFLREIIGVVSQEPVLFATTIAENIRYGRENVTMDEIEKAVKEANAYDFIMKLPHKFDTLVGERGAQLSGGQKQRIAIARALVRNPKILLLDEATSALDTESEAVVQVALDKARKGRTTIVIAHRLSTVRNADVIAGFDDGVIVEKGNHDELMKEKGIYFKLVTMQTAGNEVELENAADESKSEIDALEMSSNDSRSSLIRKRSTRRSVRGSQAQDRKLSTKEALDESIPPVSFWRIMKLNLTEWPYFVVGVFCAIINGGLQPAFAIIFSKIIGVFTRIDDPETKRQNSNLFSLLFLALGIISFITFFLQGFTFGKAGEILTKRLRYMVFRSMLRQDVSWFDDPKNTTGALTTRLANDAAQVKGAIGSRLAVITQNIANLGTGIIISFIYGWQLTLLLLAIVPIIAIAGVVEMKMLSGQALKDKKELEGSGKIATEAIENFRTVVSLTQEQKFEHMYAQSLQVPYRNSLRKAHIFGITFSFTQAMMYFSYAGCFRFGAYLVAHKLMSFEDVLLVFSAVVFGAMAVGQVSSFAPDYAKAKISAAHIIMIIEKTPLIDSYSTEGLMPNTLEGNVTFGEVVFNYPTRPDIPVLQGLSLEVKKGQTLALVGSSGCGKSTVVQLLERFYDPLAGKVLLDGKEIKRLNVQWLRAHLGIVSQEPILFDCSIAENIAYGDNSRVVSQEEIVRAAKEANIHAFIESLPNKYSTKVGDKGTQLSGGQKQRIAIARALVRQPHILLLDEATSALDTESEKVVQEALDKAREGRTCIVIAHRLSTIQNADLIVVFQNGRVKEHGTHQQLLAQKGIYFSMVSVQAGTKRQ
# Assay: Inhibition of ABCB1 expressed in Kb-V1 cells after 10 mins by calcein-AM assay
# Type: cell-based
# Settings: not given
row,IC50,SMILES
1,> 50 µM,COCCOCCOCCOc1cc2c(cc1OC)CN(CCc1ccc(NC(=O)c3ccc(C(=O)OC)c(NC(=O)c4ccc5ccccc5n4)c3)cc1)CC2
2,> 50 µM,COCCOCCOCCOc1cc2c(cc1OC)CN(CCc1ccc(NC(=O)c3ccc(C(=O)O)c(NC(=O)c4ccc5ncccc5c4)c3)cc1)CC2
3,> 50 µM,COCCOCCOCCOc1cc2c(cc1OC)CCN(CCc1ccc(NC(=O)c3ccc(C(=O)OC)c(NC(=O)c4ccc5ncccc5c4)c3)cc1)C2
4,> 50 µM,COCCOCCOCCOc1cc2c(cc1OC)CCN(CCc1ccc(NC(=O)c3ccc(C(=O)OC)c(NC(=O)c4ccc5ccccc5n4)c3)cc1)C2
5,> 100 µM,COCCOCCOCCOc1cc2c(cc1OC)CN(CCc1ccc(NC(=O)c3ccc(C(=O)OC)c(NC(=O)c4ccc5ncccc5c4)c3)cc1)CC2
6,> 50 µM,COCCOCCOCCOc1cc2c(cc1OC)CCN(CCc1ccc(NC(=O)c3ccc(C(=O)O)c(NC(=O)c4ccc5ncccc5c4)c3)cc1)C2

# More lines, now with the values behind:
row,SMILES,IC50
1,COC(=O)c1ccc(C(=O)Nc2ccc(CCN3CCc4cc(OC)c(OC)cc4C3)cc2)cc1NC(=O)c1ccc2ncccc2c1,> 10 µM
2,COCCOCCOCCOc1cc2c(cc1OC)CCN(CCc1ccc(NC(=O)c3ccc(C(=O)O)c(NC(=O)c4ccc5ccccc5n4)c3)cc1)C2,> 100 µM
3,COC(=O)c1ccc(C(=O)Nc2ccc(CCN3CCc4cc(OC)c(OC)cc4C3)cc2)cc1NC(=O)c1ccc2ccccc2n1,> 29 µM
4,COc1cc2c(cc1OC)CN(CCc1ccc(NC(=O)c3ccc(C(=O)O)c(NC(=O)c4ccc5ccccc5n4)c3)cc1)CC2,> 50 µM
5,COCCOCCOCCOc1cc2c(cc1OC)CN(CCc1ccc(NC(=O)c3ccc(C(=O)O)c(NC(=O)c4ccc5ccccc5n4)c3)cc1)CC2,> 100 µM
6,COc1cc2c(cc1OC)CN(CCc1ccc(NC(=O)c3ccc(C(=O)O)c(NC(=O)c4ccc5ncccc5c4)c3)cc1)CC2,> 1 µM

# Biological target: T2, ABCG2 (Homo sapiens, UniProt Q9UNQ0)
# T2 sequence (Q9UNQ0 whole entry): T1 sequence (Q9UNQ0 whole entry)
# Assay: Inhibition of ABCG2 expressed in human MCF7/Topo cells assessed as maximal inhibitory effect at IC50 concentration by Hoechst microplate assay
# Type: cell-based
# Settings: MCF7/Topo cells expressing ABCG2, probe Hoechst dye, read-out: INH
row,Emax,SMILES
1,55%,COC(=O)c1ccc(C(=O)Nc2ccc(CCN3CCc4cc(OC)c(OC)cc4C3)cc2)cc1NC(=O)c1ccc2ncccc2c1
2,61%,COCCOCCOCCOc1cc2c(cc1OC)CCN(CCc1ccc(NC(=O)c3ccc(C(=O)OC)c(NC(=O)c4ccc5ncccc5c4)c3)cc1)C2
3,41%,COCCOCCOCCOc1cc2c(cc1OC)CN(CCc1ccc(NC(=O)c3ccc(C(=O)OC)c(NC(=O)c4ccc5ncccc5c4)c3)cc1)CC2
